Test results reported in patent US9126060B2, “Cosmetic use of geranylgeranyl-2-propanol” (SEDERMA, priority 2010, dated 2015).

How the values were obtained:
[1] = tested on: β-galactosidase; assay: Cell-free β-galactosidase inhibition check; format: biochemical; settings: cell-free system
[2] = tested on: human fibroblasts; assay: Lipidic peroxidation of fibroblast cellular membranes after UVA stress (MDA, TBARS method); format: cell-based; settings: for MDA concentration: post UVA stress
Protocol: Principle: human fibroblasts are grown to confluence and then placed or not in contact with the GGP for 72 hours. Following this contact, the GGP is removed and the cells are exposed to oxidative stress (UVA). After a further incubation with or without the GGP, malonaldehyde (MDA) is determined by the TBARS method (Thiobarbituric Acid Reactive Substances) and the value obtained divided by the amount of cellular protein.

[3] = tested on: stratum corneum; assay: Ex vivo lipoperoxidation of stratum corneum extracts from volunteers (8-isoprostanes ELISA); format: in vivo, human; settings: cream containing 0.04% of GGP 2 times daily for 2 months on forearm; compared with placebo extracts; H2O2/FeCl2 stress; 13 volunteers
Text: Lipids of the stratum corneum are the primary targets of free radical aggressions. Thus, it seemed interesting to test the antiradical capacity of the GGP in ex vivo condition on extracts of stratum corneum from volunteers who applied for 2 months, on one arm a placebo cream and on the other arm the GGP cream (Formulation 2/2 in the examples given above). These extracts are stressed to oxidize lipids. A lower oxidation in skin extracts which were in contact with the GGP is seeked.
Principle: 13 volunteers have applied 2 times daily for 2 months in a randomized manner the cream containing 0.04% of GGP on one forearm. The placebo cream was applied controlateral. Each subject was therefore their own control. At T0 and T2, specimens of stratum corneum were taken on the 2 arms with 3 adhesive discs per aim, and for each disk 15 take off (saturation of the disk).
The disks were stored at −20° C. until lipoperoxidation testing. After rapid thawing at room temperature, the 3 discs from the same arms were collected and sonicated in a suitable diluent, to take off and recover the maximum amount of stratum corneum samples. The resulting suspension was then stressed overnight at 45° C., using a H2O2/FeCl2 solution. The lipid peroxidation was assessed by measuring 8-isoprostanes (ELISA assay). The data were normalized using a protein assay.

[4] = tested on: presenescent fibroblasts; assay: Mitochondrial membrane potential of presenescent fibroblasts (dye ratio λ520/λ590); format: cell-based; settings: for Improvement of the respiration potential / Change with regard to non stressed young cells: with oxidative stress; for Change with regard to non stressed young cells: control −100%
Text: It is possible to measure the membrane potential through a specific membrane dye. Depending on the level of the membrane potential, this dye is rather present as monomer (emission fluorescence at 520 nm) or rather in the multimetric form (fluorescence emission at 590 nm). High membrane potential promotes a multimetric form.
The ratio λ520/λ590 varies inversely with the membrane potential. The lower the ratio is, the higher the membrane potential is. The increase in the ratio thus reflects a decrease in membrane potential. The ratio λ520/λ590 for young and proliferating cells is 2.97+/−0.17.
[…] After this period, the membrane potential of half of the cultures was measured.
The other half of the cultures underwent an oxidative stress (hydrogen peroxide) before measuring their membrane potential.

[5] = Lipidic peroxidation of liposomes by UVA (conjugated dienes at 233 nm); format: biochemical
Text: Principle: Cell membranes are composed of oxidable phospholipids. Using a cell-free model (unsaturated phospholipids based liposomes) and a reproducible oxidative stress (UVA radiation), it is possible to follow spectrophotometrically (at 233 nm) the formation of early by-products of lipoperoxidation that are conjugated dienes. An anti-lipoperoxidant agent can reduce or even eliminate this phenomenon.

[6] = tested on: collagen I; assay: Collagen I synthesis in presenescent fibroblasts (immunofluorescence, image analysis); format: cell-based, human; settings: for collagen I: senescent cells, 11 days, n = 20 photos
Protocol: Principle: The collagen I synthesis was monitored in pre-senescent human dermal fibroblasts. These cells were cultured for 11 days with the GGP in a growth medium. Following this incubation, the cell layers were fixed and labeled by immunofluorescence, to visualize the network of collagen I and to quantify by image analysis on photographs. In parallel, quantification was performed on proliferating cells.

[7] = tested on: human dermal fibroblasts; assay: ATP synthesized by fibroblasts in premature senescence after oxidizing stress (chemiluminescence); format: cell-based; settings: for ATP: after hydrogen peroxide stress
Protocol: Principle: human dermal fibroblasts at confluence received the GGP for 24 h. After this phase, they were treated with hydrogen peroxide in the presence or absence of the GGP. This stress is intended to induce premature senescence (SIPS) in cells and thus a decrease in ATP synthesis. A few hours after this stress, cells were lysed and the amount of intracellular ATP was assessed by chemiluminescence. This amount of ATP was divided by the amount of intracellular proteins.

[8] = tested on: hyaluronic acid; assay: Hyaluronic acid synthesis in human fibroblasts; format: cell-based; settings: for hyaluronic acid (AH): 24 hours, n = 5
Protocol: Principle: Human dermal fibroblasts were grown in plate for 24 hours. The cells are then placed in contact or not with GGP for 24 hours. Culture supernatants were collected and assayed for the amount of hyaluronic acid (HA) is then divided by the number of cells present on the layer. TGF-β1 is used as a positive control.

[9] = tested on: decorin; assay: Decorin biosynthesis in fibroblast culture (ELISA); format: cell-based, human; settings: for Decorin: 3 days, n = 5
Protocol: Principle: Normal human fibroblasts were brought to confluence, then contacted or not with GGP at 3, 5 or 7 ppm for 3 days. After this incubation, decorin content was assayed by ELISA in cell homogenates, and then divided by the number of cells.

[10] = tested on: syndecan 1; assay: Syndecan 1 synthesis in NHK supernatants (ELISA); format: cell-based, human; settings: for Syndecan 1: 48 h, n = 3
Protocol: Principle: Human keratinocytes (NHK) are cultivated in a growth medium. After 6 days of incubation, the cells are contacted or not with the tested products (GGP and GGA) at 3, 5 or 7 ppm for 48 h. After incubation, the supernatants are taken and the syndecan 1 content is assayed by ELISA in these supernatants. The cell layers are sonicated and the cell number is evaluated by Hoechst method.

[11] = tested on: fibroblasts; assay: DNA array gene expression on fibroblasts; format: cell-based
[12] = after 3, 6 and 24 hours of contact
[13] = after 6 and 24 hours of contact

**Q.** With CC(C)=CCC/C(C)=C/CC/C(C)=C/CC/C(C)=C/CCC(C)O (centres unmarked) [GGP, 6,10,14,18-tetramethylnonadeca-5,9,13,17-tetraen-2-ol] as the compound, how does the “inhibition of β-galactosidase” value [1] read?
**A.** not an inhibitor of β-galactosidase

**Q.** What about the “% Change of MDA vs post-stress control” value ([2]; 3 ppm) of the same compound?
**A.** −20%; p < 0.01

**Q.** What about the MDA concentration ([2]; 3 ppm) of the same compound?
**A.** 881 +/− 36 nM/mg protein

**Q.** What about the “% Change of MDA vs post-stress control” value ([2]; 5 ppm) of the same compound?
**A.** −34%; p < 0.01

**Q.** And the MDA concentration ([2]; 5 ppm)?
**A.** 727 +/− 39 nM/mg protein

**Q.** And the “% Change of MDA vs post-stress control” value ([2]; 7 ppm)?
**A.** −53%; p < 0.01

**Q.** And the MDA concentration ([2]; 7 ppm)?
**A.** 515 +/− 11 nM/mg protein

**Q.** What about the “level of protection against oxidation” value [3] of the same compound?
**A.** +44%

**Q.** What about the “% of protection of the respiration potential” value ([4]; 3 ppm, no stress) of the same compound?
**A.** +22%; nsd

**Q.** And the “ΔΨ loss with regard to non stressed young cells” value ([4]; 3 ppm, one week, no stress)?
**A.** 1.11 +/− 0.33

**Q.** What about the “Improvement of the respiration potential” value ([4]; 3 ppm) of the same compound?
**A.** +35%; p < 0.05

**Q.** What about the “ΔΨ loss with regard to non stressed young cells” value ([4]; 3 ppm, with oxidative stress (hydrogen peroxide)) of the same compound?
**A.** 3.57 +/− 0.69

**Q.** And the “Change with regard to non stressed young cells” value ([4]; 3 ppm)?
**A.** −65%

**Q.** And the “% of protection of the respiration potential” value ([4]; 5 ppm, no stress)?
**A.** +41%; p < 0.01

**Q.** And the “ΔΨ loss with regard to non stressed young cells” value ([4]; 5 ppm, one week, no stress)?
**A.** 0.84 +/− 0.08

**Q.** And the “Improvement of the respiration potential” value ([4]; 5 ppm)?
**A.** +63%; p < 0.01

**Q.** What about the “ΔΨ loss with regard to non stressed young cells” value ([4]; 5 ppm, with oxidative stress (hydrogen peroxide)) of the same compound?
**A.** 2.03 +/− 0.69

**Q.** What about the “Change with regard to non stressed young cells” value ([4]; 5 ppm) of the same compound?
**A.** −37%

**Q.** And the “% of peroxidation inhibition” value ([5]; 8 ppm)?
**A.** 14%

**Q.** What about the “% of peroxidation inhibition” value ([5]; 26 ppm) of the same compound?
**A.** 24%

**Q.** What about the “% of peroxidation inhibition” value ([5]; 80 ppm) of the same compound?
**A.** 75%

**Q.** What about the “Change (%) of collagen I vs senescent cells” value ([6]; 3 ppm) of the same compound?
**A.** +367%; p < 0.01

**Q.** What about the “collagen I” value ([6]; 3 ppm) of the same compound?
**A.** 280 +/− 220 UFA/10^4 cell

**Q.** What about the “Change (%) of collagen I vs senescent cells” value ([6]; 5 ppm) of the same compound?
**A.** +483%; p < 0.01

**Q.** What about the “collagen I” value ([6]; 5 ppm) of the same compound?
**A.** 350 +/− 290 UFA/10^4 cell

**Q.** And the “Change (%) of ATP vs after-stress control” value ([7]; 5 ppm)?
**A.** +76%; p <

**Q.** And the ATP ([7]; 5 ppm)?
**A.** 311 +/− 80 nM/0.1 μg protein

**Q.** And the “Change (%) of ATP vs after-stress control” value ([7]; 7 ppm)?
**A.** +460%; p <

**Q.** What about the ATP ([7]; 7 ppm) of the same compound?
**A.** 988 +/− 38 nM/0.1 μg protein

**Q.** And the “% of change of hyaluronic acid vs control” value (from here on “% of change … vs control”) ([8]; 3 ppm)?
**A.** +23%

**Q.** What about the “hyaluronic acid (AH)” value ([8]; 3 ppm) of the same compound?
**A.** 5322 +/− 157 ng of AH/10^6 cells

**Q.** What about the “% of change … vs control” value ([8]; 5 ppm) of the same compound?
**A.** +33%

**Q.** What about the “hyaluronic acid (AH)” value ([8]; 5 ppm) of the same compound?
**A.** 5758 +/− 82 ng of AH/10^6 cells

**Q.** And the “% of change … vs control” value ([8]; 7 ppm)?
**A.** +41%

**Q.** What about the “hyaluronic acid (AH)” value ([8]; 7 ppm) of the same compound?
**A.** 6101 +/− 320 ng of AH/10^6 cells

**Q.** What about the “% of change … vs control” value ([8]; 10 ppm) of the same compound?
**A.** +46%

**Q.** What about the “hyaluronic acid (AH)” value ([8]; 10 ppm) of the same compound?
**A.** 6331 +/− 365 ng of AH/10^6 cells

**Q.** What about the “Change (%) of decorin vs control” value ([9]; 3 ppm) of the same compound?
**A.** +15%; p < 0.03

**Q.** What about the Decorin ([9]; 3 ppm) of the same compound?
**A.** 47578 +/− 3587 pg/10^6 cell

**Q.** What about the “Change (%) of decorin vs control” value ([9]; 5 ppm) of the same compound?
**A.** +32%; p < 0.01

**Q.** What about the Decorin ([9]; 5 ppm) of the same compound?
**A.** 54419 +/− 4697 pg/10^6 cell

**Q.** And the “Change (%) of decorin vs control” value ([9]; 7 ppm)?
**A.** +41%; p < 0.01

**Q.** What about the Decorin ([9]; 7 ppm) of the same compound?
**A.** 58168 +/− 5912 pg/10^6 cell

**Q.** And the “Change (%) of syndecan 1 vs control” value ([10]; 3 ppm)?
**A.** +96%; p < 0.01

**Q.** And the “Syndecan 1” value ([10]; 3 ppm)?
**A.** 135.3 +/− 6.3 pg/10^6 cell

**Q.** What about the “Change (%) of syndecan 1 vs control” value ([10]; 5 ppm) of the same compound?
**A.** +190%; p < 0.01

**Q.** And the “Syndecan 1” value ([10]; 5 ppm)?
**A.** 200.6 +/− 15.8 pg/10^6 cell

**Q.** What about the “Syndecan 1” value ([10]; 7 ppm) of the same compound?
**A.** 265.5 +/− 24.3 pg/10^6 cell

**Q.** And the “gene expression of actin gamma 2 (ACTG2)” value [11, 12]?
**A.** increase in gene expression

**Q.** What about the “gene expression of filament associated actin protein (AFAP1L1)” value [11, 12] of the same compound?
**A.** increase in gene expression

**Q.** What about the “gene expression of hyaluronic acid synthase 2” value [11, 12] of the same compound?
**A.** increase in gene expression

**Q.** And the “expression of JMJD6 gene” value [11, 13]?
**A.** increased expression

**Q.** What about the “expression of PLOD2 gene” value [11, 13] of the same compound?
**A.** increased expression
